Laboratory results published in patent publication US12617784B2, “AKT inhibitor” (Nanjing Chia Tai Tianqing Pharmaceutical Co., Ltd., priority 2019, dated 2026).
Counter-ions that a name gives are not always drawn. Like-named read-outs stand apart in the source and are kept apart here.

Columns and labels:
[1] = Pharmacokinetic evaluation in mice after intragastric administration; assay type: in vivo, mouse; conditions: po
Procedure: 400 μl of stock solution with a concentration of 10 mg/mL was accurately pipetted into a glass bottle, and 3.6 mL of mixed menstruum was added. The ratio of the menstruum in the final formulation is DMSO:mixed menstruum (v/v)=10:90. After vortexing (or sonication) and evenly distributed, 4 mL of a dosing solution with a concentration of 1 mg mL^-1 for each compound was obtained. Formulation of Isomer 2 of the compound of Example 15: Menstruum: DMSO: PEG400: ultrapure water=5:20:75 (v/v/v) 5.37 mg of test sample Isomer 2 of the compound of Example 15 was weighed into a glass bottle; 0.269 mL of DMSO was added, vortexed to completely dissolve the solid material; 1.074 mL of PEG400 was added, vortexed, and mixed; 4.028 mL of ultrapure water was added, vortexed and mixed to obtain a colorless solution with a concentration of 1 mg·mL^-1. Experimental animal: mouse, strain ICR, source: Weitong Lihua Laboratory Animal Technology Co., Ltd., age: 6-10 weeks, male. [table] The experimental animals were fed in the animal room of Suzhou Shengsu New Pharmaceutical Development Co., Ltd. The animal room was well ventilated and equipped with air conditioning. The temperature was maintained at 20-25° C. and the humidity was maintained at 40%-70%. Bright and dark lighting for 12 hours each, and the experimental animals ate and drank freely. After normal feeding for at least 5 days, mice with good physical signs were selected for this experiment after veterinary inspection. Each mouse was marked with a tag on its tail. On the day before the experiment, the mice were fasted overnight and were allowed to drink freely, and were fed 4 hours after the administration. […] After the administration, about 100 μL of blood was collected from the orbit of the mouse at each time point and placed in an EDTA-K2 anticoagulation tube. […] An LC-MS/MS analytical method for determining the concentration of compounds in mouse plasma was established and used to determine the concentration of compounds in the biological samples obtained in this experiment. The non-compartmental model in Pharsight Phoenix 7.0 was used to calculate the pharmacokinetic parameters.

AKT1 = AKT1 (Homo sapiens, UniProt P31749); experiment: In vitro enzyme activity test (HTRF kinEASE TK), AKT1; assay type: biochemical; conditions: ATP 2 μM, enzyme 0.6 ng/well, reaction 50 min
Procedure: (§1) Experimental Procedure 2.1 Preparation of Reagents
(§2) 1 mL 1× Kinase Reaction Buffer of Kinase AKT1, AKT2 and AKT3 contain 200 μL 5× Kinase Reaction Buffer, 5 μL 1 M MgCl2, 1 μL 1 M DTT and 794 μL ultrapure water.
(§3) In addition to the control wells, 4 μL of the diluted compound working solutions were added to all reaction wells.
(§4) b) 2 μL of the previously prepared TK-biotin substrate solution was added to all reaction wells.
(§5) c) 2 μL of the previously prepared enzyme solution was added to all reaction wells, except the negative wells. The volume of the negative well was filled with 2 μL of enzyme corresponding to 1× kinase reaction buffer. The plate was sealed with sealing film. After mixing, the plate was incubated at room temperature for 10 min to allow the compound and enzyme to fully combined.
(§6) d) 2 μL of ATP solution was added to all reaction wells to start the kinase reaction.
(§7) e) The test solution was prepared 5 min before the end of the kinase reaction.
(§8) f) After the kinase reaction was completed, 5 μL of diluted streptavidin-XL665 were added to all reaction wells, and immediately the diluted europium-labeled tyrosine kinase substrate antibody detection solution was added after mixing.
(§9) g) The plate was sealed and mixed well. […] The inhibition rate of each well was calculated through the fully active wells and the background signal wells, taking the average value in case of multiple wells. Meanwhile, the professional drawing analysis software PRISM 6.0 was used to fit the half maximal inhibitory concentration (IC50) of each test compound.

AKT3 = target: T1, AKT3 (Homo sapiens, UniProt Q9Y243); experiment: In vitro enzyme activity test (HTRF kinEASE TK), AKT3; assay type: biochemical; conditions: enzyme 0.3 ng/well, reaction 50 min
T1 construct: purchased Invitrogen PV3185
Procedure: as §1, §2, §3, §4, §5, §6, §7, §8, §9

AKT2 = target: T2, AKT2 (Homo sapiens, UniProt P31751); experiment: In vitro enzyme activity test (HTRF kinEASE TK), AKT2; assay type: biochemical; conditions: ATP 20 μM, enzyme 0.1 ng/well, reaction 50 min
T2 construct: purchased Carna 01-102
Procedure: as §1, §2, §3, §4, §5, §6, §7, §8, §9

[2] = male ICR mouse, 10 mg·kg−1 intragastrically, single dose, fasted, plasma
[3] = male ICR mouse, 10 mg·kg−1 intragastrically, single dose, fasted, plasma, read-out: AUC
[4] = male ICR mouse, 10 mg·kg−1 intragastrically, single dose, fasted, plasma, read-out: Cmax
[5] = male ICR mouse, 10 mg·kg−1 intragastrically, single dose, fasted, plasma, read-out: Tmax
[6] = male, ICR, mouse, in vivo, 10 mg/kg

Chain of AKT1 (P31749 whole entry): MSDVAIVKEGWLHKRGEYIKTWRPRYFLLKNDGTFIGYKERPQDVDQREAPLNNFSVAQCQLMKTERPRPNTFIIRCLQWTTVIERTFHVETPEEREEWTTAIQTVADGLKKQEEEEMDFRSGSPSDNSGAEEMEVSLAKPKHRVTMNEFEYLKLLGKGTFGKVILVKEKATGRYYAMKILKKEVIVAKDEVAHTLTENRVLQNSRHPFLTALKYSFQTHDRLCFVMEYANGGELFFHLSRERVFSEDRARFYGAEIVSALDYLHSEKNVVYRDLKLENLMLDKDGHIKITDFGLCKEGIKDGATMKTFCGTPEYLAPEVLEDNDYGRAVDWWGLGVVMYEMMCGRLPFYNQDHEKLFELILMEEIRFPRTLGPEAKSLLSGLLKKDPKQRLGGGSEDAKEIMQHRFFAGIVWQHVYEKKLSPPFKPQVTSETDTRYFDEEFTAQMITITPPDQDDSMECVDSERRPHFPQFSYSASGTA
T2 sequence (P31751 whole entry): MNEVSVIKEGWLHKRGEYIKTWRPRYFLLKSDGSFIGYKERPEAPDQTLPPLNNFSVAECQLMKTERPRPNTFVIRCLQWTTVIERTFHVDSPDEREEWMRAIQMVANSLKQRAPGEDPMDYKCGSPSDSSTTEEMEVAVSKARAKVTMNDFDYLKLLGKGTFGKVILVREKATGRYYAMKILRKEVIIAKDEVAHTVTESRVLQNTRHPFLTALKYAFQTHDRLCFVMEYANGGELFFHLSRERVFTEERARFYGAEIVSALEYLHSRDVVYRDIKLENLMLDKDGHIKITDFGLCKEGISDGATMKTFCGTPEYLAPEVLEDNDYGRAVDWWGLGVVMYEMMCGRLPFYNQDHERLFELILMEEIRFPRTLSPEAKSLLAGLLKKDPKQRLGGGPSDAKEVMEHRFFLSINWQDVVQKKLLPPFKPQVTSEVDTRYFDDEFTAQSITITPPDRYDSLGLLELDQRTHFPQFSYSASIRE
T1 sequence (Q9Y243 whole entry): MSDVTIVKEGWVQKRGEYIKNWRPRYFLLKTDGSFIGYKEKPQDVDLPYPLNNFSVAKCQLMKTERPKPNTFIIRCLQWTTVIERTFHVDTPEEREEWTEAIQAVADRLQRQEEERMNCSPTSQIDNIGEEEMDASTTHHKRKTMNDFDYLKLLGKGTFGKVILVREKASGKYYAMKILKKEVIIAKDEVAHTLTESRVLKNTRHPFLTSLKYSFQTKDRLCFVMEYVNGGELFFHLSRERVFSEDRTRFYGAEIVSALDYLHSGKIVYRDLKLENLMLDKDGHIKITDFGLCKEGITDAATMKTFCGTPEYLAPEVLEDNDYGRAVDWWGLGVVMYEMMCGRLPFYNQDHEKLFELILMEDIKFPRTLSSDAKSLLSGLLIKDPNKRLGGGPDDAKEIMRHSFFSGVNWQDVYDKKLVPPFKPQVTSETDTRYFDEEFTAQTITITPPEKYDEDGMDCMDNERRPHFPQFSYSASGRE

| Structure (SMILES) | IC50 (AKT1) [nM] | IC50 (AKT3) [nM] | IC50 (AKT2) [nM] | further results |
| --- | --- | --- | --- | --- |
| CC(C)NC[C@@H](C(=O)N1CCN(c2ncnc3c2[C@H](C)CC(=O)N3)[C@H]2C[C@H]21)c1ccc(Cl)cc1 (single isomer, unassigned) [Example 15 Isomer 2] | – | – | – | half-life [1, 2]: 3.16 h; AUC [1, 3]: 2170 ng·h/mL; Cmax [1, 4]: 583 ng/mL; Tmax [1, 5]: 1 h |
| CC(C)NC[C@@H](C(=O)N1CC2CCC(C1)N2c1ncnc2c1[C@@H](C(F)(F)F)CC(=O)N2)c1ccc(Cl)cc1 (single isomer, unassigned) [Example 25 Isomer 1] | 218 | 20 | ≥ 1000 | – |
| CC(C)NC[C@@H](C(=O)N1C2CCC1CN(c1ncnc3c1[C@H]1C[C@H]1C(=O)N3)C2)c1ccc(Cl)cc1 (single isomer, unassigned) [Example 39 Isomer 2] | 151 | 43 | 756 | – |
| CC(C)NCC(C(=O)N1CCN(c2ncnc3c2[C@H](C)CC(=O)N3)C[C@@H]1C)c1ccc(Cl)cc1 (stereo in doubt) [Example 9, (R)-4-((S)-4-((R)-2-(4-chlorophenyl)-3-(isopropylamino)propionyl)-3-methylpiperazin-1-yl)-5-methyl-5,8-dihydropyrido[2,3-d]pyrimidin-7(6H)-one] | 167 | 3.3 | 206 | – |
| CC(C)NC[C@@H](C(=O)N1C2CCC1CN(c1ncnc3c1[C@H](C)CC(=O)N3)C2)c1ccc(Cl)cc1 [Example 10, (R)-4-(8-((S)-2-(4-chlorophenyl)-3-(isopropylamino)propionyl)-3,8-diazabicyclo[3.2.1]octan-3-yl)-5-methyl-5,8-dihydropyrido[2,3-d]pyrimidin-7(6H)-one] | 2.8 | 0.21 | – | half-life [1, 2]: 1.67 h; AUC [1, 3]: 911 ng·h/mL; Cmax [1, 4]: 321 ng/mL; Tmax [1, 5]: 0.5 h |
| C[C@@H]1CC(=O)Nc2ncnc(N3CCN(C(=O)C4(c5ccc(Cl)cc5)CCNCC4)CC3)c21 [Example 18, (R)-4-(4-(4-(4-chlorophenyl)piperidin-4-carbonyl)piperazin-1-yl)-5-methyl-5,8-dihydropyrido[2,3-d]pyrimidin-7(6H)-one formate] | 590 | 20.1 | 256 | – |
| CC(C)NC[C@@H](C(=O)N1C2CCC1CN(c1ncnc3c1N(C)CC(=O)N3)C2)c1ccc(Cl)cc1 [Example 21, 4-(8-((S)-2-(4-chlorophenyl)-3-(isopropylamino)propionyl)-3,8-diazabicyclo[3.2.1]octan-3-yl)-5-methyl-5,8-dihydropteridine-7(6H)-one formate] | 1.9 | 0.2 | – | AUC [1, 6]: 2290 ng·h/mL; Cmax [1, 6]: 681 ng/mL; Tmax [1, 6]: 1 h |
| CC(C)NC[C@@H](C(=O)N1C2CCC1CN(c1ncnc3c1N(CCO)CC(=O)N3)C2)c1ccc(Cl)cc1 [Example 31] | 210 | 1.8 | ≥ 1000 | – |
| CC(C)NC[C@@H](C(=O)N1CCN(c2ncnc3c2[C@H](C)C[C@H]3O)CC1)c1ccc(Cl)cc1 [GDC-0068, reference compound] | – | – | – | half-life [1, 2]: 2.59 h; AUC [1, 3]: 320 ng·h/mL; Cmax [1, 4]: 75.3 ng/mL; Tmax [1, 5]: 2 h |

Second part, led by results:

| IC50 (AKT1) [nM] | IC50 (AKT3) [nM] | IC50 (AKT2) [nM] | Structure (SMILES) | further results |
| --- | --- | --- | --- | --- |
| 116 | 19 | ≥ 1000 | CC(C)NC[C@@H](C(=O)N1C2CCC1CN(c1ncnc3c1[C@H](C(F)(F)F)CC(=O)N3)C2)c1ccc(Cl)cc1 (single isomer, unassigned) [Example 24 Isomer 2] | – |
| 0.59 | 0.19 | 20 | CC(C)NC[C@@H](C(=O)N1CC2CCC(C1)N2c1ncnc2c1[C@H](C(F)(F)F)CC(=O)N2)c1ccc(Cl)cc1 (single isomer, unassigned) [Example 25 Isomer 2] | – |
| 147 | 7.4 | ≥ 1000 | CC(C)NC[C@@H](C(=O)N1CCN(c2ncnc3c2N(C)CC(=O)N3)[C@@H]2C[C@@H]21)c1ccc(Cl)cc1 (single isomer, unassigned) [Example 27 Isomer 2] | – |
| 0.6 | 0.12 | – | CC(C)NC[C@@H](C(=O)N1CCN(c2ncnc3c2[C@H](C)OC(=O)N3)[C@H]2C[C@H]21)c1ccc(Cl)cc1 (single isomer, unassigned) [Example 34 Isomer 4] | AUC [1, 3]: 2580 ng·h/mL; Cmax [1, 4]: 497 ng/mL; Tmax [1, 5]: 4 h |
| 13 | 7.6 | 75 | CC(C)NC[C@@H](C(=O)N1C2CCC1CN(c1ncnc3c1[C@@H]1C[C@@H]1C(=O)N3)C2)c1ccc(Cl)cc1 (single isomer, unassigned) [Example 39 Isomer 1] | – |
| 2.4 | 0.4 | 4.3 | CC(C)NC[C@@H](C(=O)N1CCN(c2ncnc3c2[C@H](C)CC(=O)N3)CC1)c1ccc(Cl)cc1 [Example 2 (R) Configur- ation product, (R)-4-(4-((S)-2-(4-chlorophenyl)-3-(isopropylamino)propionyl)piperazin-1-yl)-5-methyl-5,8-dihydropyrido[2,3-d]pyrimidin-7(6H)-one] | – |
| 39 | 0.56 | 334 | CC(C)NC[C@@H](C(=O)N1CCN(c2ncnc3c2N(C)CC(=O)N3)C[C@@H]1C)c1ccc(Cl)cc1 [Example 22, 4-((S)-4-((S)-2-(4-chlorophenyl)-3-(isopropylamino)propionyl)-3-methylpiperazin-1-yl)-5-methyl-5,8-dihydropteridine-7(6H)-one] | – |
| 2.1 | 0.19 | 89 | CCN1CC(=O)Nc2ncnc(N3CC4CCC(C3)N4C(=O)[C@H](CNC(C)C)c3ccc(Cl)cc3)c21 [Example 28] | – |
| 77 | 22 | 800 | CC(C)NC[C@@H](C(=O)N1C2CCC1CN(c1ncnc3[nH]c(=O)c(=O)n(C)c13)C2)c1ccc(Cl)cc1 [Example 36, 4-(8-((S)-2-(4-chlorophenyl)-3-(isopropylamino)propionyl)-3,8-diazabicyclo[3.2.1]octan-3-yl)-5-methyl-5,8-dihydropteridine-6,7-dione] | – |
| 2.4 | 0.28 | 23 | C[C@@H]1CC(=O)Nc2ncnc(N3CC4CCC(C3)N4C(=O)[C@H](CNC3CC3)c3ccc(Cl)cc3)c21 [Example 38] | – |
